# Assay results: patent US20090143279A1 (priority 2007, published 2009)
# Read-outs that look alike come from different tables or passages of the source. Where a SMILES comes first, the peptide text is derived from it.
# Experiments:
# reactive oxygen species = assay type: cell-based, mouse; details: for ROS (composite Z-score): normalized score vs mock-treated (DMSO) wells
# [1] = system: cellular dehydrogenase activity; details: for MTT (composite Z-score): normalized score vs mock-treated (DMSO) wells
# nuOXPHOS transcripts = assay type: cell-based, mouse; details: for nucOX (composite Z-score): normalized score vs mock-treated (DMSO) wells
# OXPHOS gene expression = assay type: cell-based, mouse; details: for GE-HTS (composite Z-score): normalized score vs mock-treated (DMSO) wells
# C2C12 myotubes = details: for Viability (composite Z-score): normalized score vs mock-treated (DMSO) wells
# [2] = system: mitochondrial membrane potential; assay type: cell-based, mouse; details: for ΔΨm (composite Z-score): normalized score vs mock-treated (DMSO) wells
# cytochrome c = assay type: cell-based, mouse; details: for cyt c (composite Z-score): normalized score vs mock-treated (DMSO) wells
# mtOXPHOS transcripts = assay type: cell-based, mouse; details: for mitoOX (composite Z-score): normalized score vs mock-treated (DMSO) wells
# [3] = composite Z-score vs DMSO, Conc 20 μM
# [4] = composite Z-score vs mock-treated (DMSO) wells, Conc 20 μM
# [5] = composite Z-score vs DMSO wells, Conc 20 μM
# [6] = normalized composite Z-score vs mock-treated (DMSO) wells, Conc 20 μM
# [7] = Table 4, C2C12 myotubes, 48 h, composite Z-score
smiles,measurement,setting,value
C[C@]12CCC(=O)C(O)=C1CC[C@@H]1[C@@H]2CC[C@]2(C)C(=O)CC[C@@H]12 [formestane],ROS,reactive oxygen species; [3],1.013
same,MTT,[1]; [3],−0.725
same,nucOX,nuOXPHOS transcripts; [3],0.050
same,GE-HTS,OXPHOS gene expression; [3],0.097
same,Viability,C2C12 myotubes; [3],−0.582
same,ΔΨm,[2]; [3],−0.608
same,cyt c,cytochrome c; [3],−0.115
same,mitoOX,mtOXPHOS transcripts; [3],0.121
COc1cc2ccc(=O)oc2c(OC)c1OC [fraxidin methyl ether],ROS,reactive oxygen species; [4],0.276
same,MTT,[1]; [4],−2.013
same,nucOX,nuOXPHOS transcripts; [4],−0.104
same,GE-HTS,OXPHOS gene expression; [4],−0.124
same,Viability,C2C12 myotubes; [4],−1.325
same,ΔΨm,[2]; [4],−0.713
same,cyt c,cytochrome c; [4],−0.098
same,mitoOX,mtOXPHOS transcripts; [4],−0.103
C[C@H]1C(=O)CC[C@@H]2[C@]1(C)CC[C@H]1[C@@]2(C)CC[C@@]2(C)[C@@H]3CC(C)(C)CC[C@]3(C)CC[C@]12C [friedelin],ROS,reactive oxygen species; [3],0.449
same,MTT,[1]; [3],−1.362
same,nucOX,nuOXPHOS transcripts; [3],−1.150
same,GE-HTS,OXPHOS gene expression; [3],−1.043
same,Viability,C2C12 myotubes; [3],0.082
same,ΔΨm,[2]; [3],−0.867
same,cyt c,cytochrome c; [3],0.614
same,mitoOX,mtOXPHOS transcripts; [3],−0.600
NCCCC(=O)O [gamma-aminobutyric acid],ROS,reactive oxygen species; [5],0.209
same,MTT,[1]; [5],−0.777
same,nucOX,nuOXPHOS transcripts; [5],0.212
same,GE-HTS,OXPHOS gene expression; [5],−0.119
same,Viability,C2C12 myotubes; [5],1.043
same,ΔΨm,[2]; [5],0.550
same,cyt c,cytochrome c; [5],−0.038
same,mitoOX,mtOXPHOS transcripts; [5],−0.693
COC(=O)c1c(OC)cc2c(c1C)Oc1c(Cl)c(O)c(Cl)c(C)c1C(=O)O2 [gangaleoidin],ROS,reactive oxygen species; [6],1.356
same,MTT,[1]; [6],−1.213
same,nucOX,nuOXPHOS transcripts; [6],−0.587
same,GE-HTS,OXPHOS gene expression; [6],−0.512
same,Viability,C2C12 myotubes; [6],0.889
same,ΔΨm,[2]; [6],−1.233
same,cyt c,cytochrome c; [6],−0.876
same,mitoOX,mtOXPHOS transcripts; [6],−0.310
COc1cc(O)c2c(=O)cc(-c3ccc(O)cc3)oc2c1 [genkwanin],ROS (composite Z-score),reactive oxygen species; Conc 20 μM,3.337
same,MTT (composite Z-score),[1]; Conc 20 μM,−2.090
same,nucOX (composite Z-score),nuOXPHOS transcripts; Conc 20 μM,0.407
same,GE-HTS (composite Z-score),OXPHOS gene expression; Conc 20 μM,0.425
same,Viability (composite Z-score),C2C12 myotubes; Conc 20 μM,−0.323
same,ΔΨm (composite Z-score),[2]; Conc 20 μM,−0.491
same,cyt c (composite Z-score),cytochrome c; Conc 20 μM,−0.037
same,mitoOX (composite Z-score),mtOXPHOS transcripts; Conc 20 μM,0.389
C=C1C[C@]23C[C@@]1(O)CC[C@H]2[C@@]12C=C[C@H](O)[C@@](C)(C(=O)O1)[C@H]2[C@@H]3C(=O)O [gibberellic acid],ROS,reactive oxygen species,0.246
same,ROS,reactive oxygen species; [4],0.512
same,MTT,[1],−0.432
same,MTT,[1]; [4],0.661
same,nucOX,nuOXPHOS transcripts,0.066
same,nucOX,nuOXPHOS transcripts; [4],0.077
same,GE-HTS,OXPHOS gene expression,0.021
same,GE-HTS,OXPHOS gene expression; [4],−0.014
same,Viability,C2C12 myotubes,−0.171
same,Viability,C2C12 myotubes; [4],−0.081
same,ΔΨm,[2],2.622
same,ΔΨm,[2]; [4],−0.439
same,cyt c,cytochrome c,0.714
same,cyt c,cytochrome c; [4],0.031
same,mitoOX,mtOXPHOS transcripts,−0.090
same,mitoOX,mtOXPHOS transcripts; [4],−0.264
COc1cc(O)c2c(=O)cc(-c3ccc(OC)c(-c4c(O)cc(O)c5c(=O)cc(-c6ccc(O)cc6)oc45)c3)oc2c1 [ginkgetin],ROS,reactive oxygen species; [3],−1.347
same,MTT,[1]; [3],−3.855
same,nucOX,nuOXPHOS transcripts; [3],−2.585
same,GE-HTS,OXPHOS gene expression; [3],−2.228
same,Viability,C2C12 myotubes; [3],−1.523
same,ΔΨm,[2]; [3],−4.324
same,cyt c,cytochrome c; [3],−3.027
same,mitoOX,mtOXPHOS transcripts; [3],−1.101
C[C@@H]1C(=O)O[C@H]2C[C@@]34[C@H]5C[C@@H](C(C)(C)C)[C@]36[C@@H](OC(=O)[C@@H]6O)O[C@@]4(C(=O)O5)[C@]21O [ginkgolide A],ROS,reactive oxygen species; [6],1.848
same,MTT,[1]; [6],−1.019
same,nucOX,nuOXPHOS transcripts; [6],−0.286
same,GE-HTS,OXPHOS gene expression; [6],−0.247
same,Viability,C2C12 myotubes; [6],0.380
same,ΔΨm,[2]; [6],−0.271
same,cyt c,cytochrome c; [6],0.541
same,mitoOX,mtOXPHOS transcripts; [6],−0.123
CC(=O)O[C@H]1CC[C@@]2(C)[C@H](CC[C@@H]3[C@@H]2CC[C@]2(C)[C@@H](C4=CC(=O)OC4)[C@@H](OC(C)=O)C[C@]32O)C1 [gitoxigenin diacetate],ROS,reactive oxygen species; [3],0.508
same,MTT,[1]; [3],−1.077
same,nucOX,nuOXPHOS transcripts; [3],−0.649
same,GE-HTS,OXPHOS gene expression; [3],−0.594
same,Viability,C2C12 myotubes; [3],0.187
same,ΔΨm,[2]; [3],−0.792
same,cyt c,cytochrome c; [3],0.684
same,mitoOX,mtOXPHOS transcripts; [3],−0.322
OC[C@@H](O)[C@@H](OC1O[C@H](CO)[C@@H](O)[C@H](O)[C@H]1O)[C@H](O)[C@@H](O)CO (stereo partly drawn) [glucitol-4-gucopyanoside],ROS (composite Z-score),reactive oxygen species; Conc 20 μM,0.351
same,MTT (composite Z-score),[1]; Conc 20 μM,−0.795
same,nucOX (composite Z-score),nuOXPHOS transcripts; Conc 20 μM,−1.087
same,GE-HTS (composite Z-score),OXPHOS gene expression; Conc 20 μM,−1.143
same,Viability (composite Z-score),C2C12 myotubes; Conc 20 μM,−0.508
same,ΔΨm (composite Z-score),[2]; Conc 20 μM,−0.454
same,cyt c (composite Z-score),cytochrome c; Conc 20 μM,0.305
same,mitoOX (composite Z-score),mtOXPHOS transcripts; Conc 20 μM,−1.006
CC(C)C[C@H](NC(=O)CN)C(=O)N[C@@H](Cc1ccccc1)C(=O)O [glycylleucylphenylalanine] (H-Gly-Leu-Phe-OH),ROS,reactive oxygen species; [3],0.973
same,MTT,[1]; [3],−0.344
same,nucOX,nuOXPHOS transcripts; [3],0.033
same,GE-HTS,OXPHOS gene expression; [3],−0.095
same,Viability,C2C12 myotubes; [3],−0.254
same,ΔΨm,[2]; [3],−0.774
same,cyt c,cytochrome c; [3],−0.182
same,mitoOX,mtOXPHOS transcripts; [3],−0.322
CC1(C)[C@@H](O[C@H]2O[C@H](C(=O)O)[C@@H](O)[C@H](O)[C@H]2O[C@@H]2O[C@H](C(=O)O)[C@@H](O)[C@H](O)[C@H]2O)CC[C@]2(C)[C@H]3C(=O)C=C4[C@@H]5C[C@@](C)(C(=O)O)CC[C@]5(C)CC[C@@]4(C)[C@]3(C)CC[C@@H]12 [glycyrrhizic acid],ROS,reactive oxygen species; [3],0.578
same,MTT,[1]; [3],−0.746
same,nucOX,nuOXPHOS transcripts; [3],−0.227
same,GE-HTS,OXPHOS gene expression; [3],−0.424
same,Viability,C2C12 myotubes; [3],0.254
same,ΔΨm,[2]; [3],−0.606
same,cyt c,cytochrome c; [3],0.339
same,mitoOX,mtOXPHOS transcripts; [3],−0.753
"COc1cc(OC)c2c(c1Cl)O[C@@]1(C(=O)CC(=O)C[C@H]1C)C2=O [griseofulvic acid, reference compound]",ROS,reactive oxygen species; [7],−0.323
same,ROS,reactive oxygen species; [4],−0.323
same,MTT,[1]; [7],−0.469
same,MTT,[1]; [4],−0.469
same,nucOX,nuOXPHOS transcripts; [4],−0.442
same,GE-HTS,OXPHOS gene expression; [4],−0.370
same,Viability,C2C12 myotubes; [7],0.176
same,Viability,C2C12 myotubes; [4],0.176
same,ΔΨm,"[2]; Table 4, C2C12 myotubes, 48 h, JC-1, composite Z-score",−0.666
same,ΔΨm,[2]; [4],−0.666
same,cyt c,cytochrome c; [4],0.724
same,mitoOX,mtOXPHOS transcripts; [4],−0.209
N=C(N)N/N=C/c1c(Cl)cccc1Cl [guanabenz],ROS,reactive oxygen species; [3],1.527
same,MTT,[1]; [3],−0.886
same,nucOX,nuOXPHOS transcripts; [3],−0.286
same,GE-HTS,OXPHOS gene expression; [3],−0.428
same,Viability,C2C12 myotubes; [3],−0.404
same,ΔΨm,[2]; [3],−1.073
same,cyt c,cytochrome c; [3],0.420
same,mitoOX,mtOXPHOS transcripts; [3],−0.563
N=C(N)N.N=C(N)N.O=C(O)O [guanidine carbonate],ROS,reactive oxygen species; [3],0.401
same,MTT,[1]; [3],−0.683
same,nucOX,nuOXPHOS transcripts; [3],−1.112
same,GE-HTS,OXPHOS gene expression; [3],−1.142
same,Viability,C2C12 myotubes; [3],−0.835
same,ΔΨm,[2]; [3],−0.252
same,cyt c,cytochrome c; [3],−1.206
same,mitoOX,mtOXPHOS transcripts; [3],−0.993
Cc1cc(OC(=O)c2c(C)cc(OC(=O)c3c(C)cc(O)cc3O)cc2O)cc(O)c1C(=O)O [gyrophoric acid],ROS,reactive oxygen species; [6],0.897
same,MTT,[1]; [6],−0.977
same,nucOX,nuOXPHOS transcripts; [6],−0.546
same,GE-HTS,OXPHOS gene expression; [6],−0.471
same,Viability,C2C12 myotubes; [6],−0.579
same,ΔΨm,[2]; [6],−0.842
same,cyt c,cytochrome c; [6],−0.557
same,mitoOX,mtOXPHOS transcripts; [6],−0.289
"CCOC(=O)c1c(C)cc(O)c(C=O)c1O [haematommic acid, ethyl ester]",ROS,reactive oxygen species; [4],0.478
same,MTT,[1]; [4],−0.761
same,nucOX,nuOXPHOS transcripts; [4],0.387
same,GE-HTS,OXPHOS gene expression; [4],0.450
same,Viability,C2C12 myotubes; [4],−0.557
same,ΔΨm,[2]; [4],−0.120
same,cyt c,cytochrome c; [4],−0.104
same,mitoOX,mtOXPHOS transcripts; [4],0.537
